Reference: patent US4699928A, “Fluoroallylamine derivatives” (Merrell Dow Pharmaceuticals Inc., priority 1986, dated 1987)

Assays:
[1] = tested on: heart rate response to p-tyramine; assay: Cheese effect: potentiation of response to intraduodenal p-tyramine, anaesthetized rats; assay type: in vivo, male Sprague-Dawley rats; conditions: 18 h, p-tyramine i.d.
Protocol: The following test procedures can be employed to assess the potential of a compound of Formula I for producing the "cheese effect": […]
Eighteen hours later the animals are anaesthetized with pentobarbitone (60 mg/kg i.p.), in some instances pithed, and in all cases set up for recording heart rate and blood pressure by standard techniques.

[2] = tested on: brain monoamines and their metabolites; assay: Inhibition of MAO in vivo: brain monoamines and their metabolites (HPLC); set-up: species or system male Sprague-Dawley rats; conditions: for DOPAC, brain / HVA, brain / 5HIAA, brain / NE, brain / 5-HT, brain / DA (dopamine), brain: 18 h, ± S.E.M.; for DOPAC, brain: control 80 ± 3; for HVA, brain: control 81 ± 3; for 5HIAA, brain: control 347 ± 8; for NE, brain: control 369 ± 18; for 5-HT, brain: control 1156 ± 52; for DA (dopamine), brain: control 840 ± 27
Protocol: The ability of a compound of Formula I to inhibit MAO can be determined in vivo using brain and heart samples obtained from the ex vivo study reported in Example 9. Monoamines and their deaminated metabolites were determined by HPLC with electrochemical detection by the method of J. Wagner et al, J. Neurochem. 38 1241-1254.
When (Z)-2-(2',4'-dichlorophenoxy)methyl-3-fluoroallylamine is tested according to the above-described procedure, the results given in Tables IV and V are obtained. In these tables the following abbreviations are used: […]

With `NC/C(=C/F)COc1ccc(Cl)cc1Cl` [(z)-2-(2',4'-dichlorophenoxy)methyl-3-fluoroallylamine] the “Potentiation of heart rate response to p-tyramine” value (“Potentiation … to p-tyramine” below) ([1]; 5 mg/kg by mouth) was 1.5 fold, the “Potentiation … to p-tyramine” value ([1]; 10 mg/kg by mouth) was 2.4 fold and the “Potentiation … to p-tyramine” value ([1]; 25 mg/kg by mouth) was 2.0 fold. For the same compound, the “DOPAC, brain” value ([2]; 1 mg/kg p.o.) was 75 ± 11 ng/g, the “HVA, brain” value ([2]; 1 mg/kg p.o.) was 94 ± 15 ng/g and the “5HIAA, brain” value ([2]; 1 mg/kg p.o.) was 371 ± 19 ng/g. For the same compound, the “NE, brain” value ([2]; 1 mg/kg p.o.) was 386 ± 18 ng/g, the “5-HT, brain” value ([2]; 1 mg/kg p.o.) was 1218 ± 66 ng/g and the “DA (dopamine), brain” value ([2]; 1 mg/kg p.o., p <0.05) was 945 ± 35 ng/g. The “DOPAC, brain” value ([2]; 2.5 mg/kg p.o.) was 70 ± 6 ng/g, the “HVA, brain” value ([2]; 2.5 mg/kg p.o.) was 75 ± 7 ng/g and the “5HIAA, brain” value ([2]; 2.5 mg/kg p.o.) was 337 ± 15 ng/g. The “NE, brain” value ([2]; 2.5 mg/kg p.o.) was 409 ± 4 ng/g, the “DA (dopamine), brain” value ([2]; 2.5 mg/kg p.o.) was 896 ± 31 ng/g and the “5-HT, brain” value ([2]; 2.5 mg/kg p.o.) was 1119 ± 64 ng/g. The “HVA, brain” value ([2]; 5 mg/kg p.o.) was 83 ± 7.2 ng/g, the “NE, brain” value ([2]; 5 mg/kg p.o.) was 415 ± 18 ng/g and the “5-HT, brain” value ([2]; 5 mg/kg p.o.) was 1340 ± 116 ng/g. The “DOPAC, brain” value ([2]; 5 mg/kg p.o., p <0.01) was 65 ± 3 ng/g, the “DA (dopamine), brain” value ([2]; 5 mg/kg p.o., p <0.02) was 943 ± 21 ng/g and the “5HIAA, brain” value ([2]; 5 mg/kg p.o., p <0.05) was 379 ± 10 ng/g. For the same compound, the “5HIAA, brain” value ([2]; 10 mg/kg p.o.) was 343 ± 14 ng/g, the “DA (dopamine), brain” value ([2]; 10 mg/kg p.o.) was 875 ± 16 ng/g and the “5-HT, brain” value ([2]; 10 mg/kg p.o.) was 1297 ± 100 ng/g. For the same compound, the “HVA, brain” value ([2]; 10 mg/kg p.o., p <0.02) was 53 ± 10 ng/g, the “NE, brain” value ([2]; 10 mg/kg p.o., p <0.02) was 439 ± 15 ng/g and the “5-HT, in words” value ([2]; 25 mg/kg dose) was “Significant increases”. For the same compound, the “HVA, brain” value ([2]; 25 mg/kg p.o.) was 75 ± 8 ng/g, the “NE, brain” value ([2]; 25 mg/kg p.o., p <0.001) was 496 ± 12 ng/g and the “DA (dopamine), brain” value ([2]; 25 mg/kg p.o., p <0.001) was 1087 ± 29 ng/g. For the same compound, the “5-HT, brain” value ([2]; 25 mg/kg p.o., p <0.001) was 1623 ± 48 ng/g, the “5HIAA, brain” value ([2]; 25 mg/kg p.o., p <0.005) was 404 ± 12 ng/g and the “DOPAC, brain” value ([2]; 25 mg/kg p.o., p <0.01) was 54 ± 6 ng/g. The “Norepinephrine (NE) concentrations, in words” value ([2]; 10 and 25 mg/kg dose) was “increased significantly”, the “dihydroxyphenylacetic acid in the brain, in words” value ([2]; following the 5 mg/kg dose) was “significant reductions” and the “dopamine in the brain, in words” value ([2]; following the 5 mg/kg dose) was “increases in dopamine”. For the same compound, the “selectivity of action, in words” value ([2]; lower doses (MAO-B) and higher doses (MAO-A)) was “selectivity of action against MAO-B at the lower doses and a small degree of MAO-A inhibition occurring at the higher doses”.
